The record followed here is US20150004620A1, “METHOD OR DEVICE FOR IDENTIFYING INHIBITOR OF EPITHELIAL MESENCHYMAL TRANSITION” (Agency for Science, Technology and Research, priority 2011, published 2015).

Type in all cases: cell-based
The subject of experiment [1] is E-cadherin. In words: Western blot of EMT marker E-cadherin in growth factor-treated NBT-II cells. To be noted: NBT-II cells, 0.5, 2 and 8 μM compound overnight, then EGF, HGF or IGF-1 for 24 h (FIG. 7). On the procedure: NBT-II cells were treated with compounds at 0.5, 2 and 8 μM overnight and incubated with a growth factor for 24 h. Cells were lysed with protease/phosphatase inhibitor-containing RIPA buffer. Proteins are separated in 8% polyacrylamide gels and transferred to PDVF membranes. Membranes were blocked in 5% BSA and incubated at 4° C. overnight with MMP-13 (Millipore), E-cadherin (BD) and α-tubulin (Sigma) primary antibodies. Membranes were then developed with HRP-conjugated secondary antibody (Amersham) and ECL substrate (Millipore).
The possibilities that ALK5, MEK, PI3K and SRC targeting compounds could modulate the expression of EMT markers, such as E-cadherin and matrix metalloproteinase-13 (MMP-13) under EMT-activated conditions were also investigated (FIG. 7). With the exception of P13K inhibitor GDC-0941, the compounds in general abrogated MMP-13 expression in growth factor-treated samples, PI3K inhibition has been previously shown to augment MMP-13 expression. […] These findings are consistent with previous reports showing that ALK5, MEK and SRC play a role in cell motility and tumor progression, while PI3K predominately regulates cell proliferation.

Experiment [2] has as its system lung carcinoma cell lines. Description: Phase contrast cell morphology, lung carcinoma cell lines. To be noted: A549, Calu-1 and H165.0 cell lines, 2 μM for 48 hours vs 0.02% DMSO. On the procedure: Cell lines were treated with 2 μM AZD0530 or 0.02% DMSO control for 48 hours. Scale bar is 100 μm. Thus, FIG. 8 provides an example of how the method as described herein may be validated by the use of various lung carcinoma cell lines.

Experiment [3] relates to ovarian carcinoma cell lines. Description: Cell movement tracking time-lapse videoscopy. To be noted: 2 μM for 48 hours, tracked for 24 hours. How it is done:
Cells were maintained in RMPI supplemented with 10% fetal bovine serum and 1× pen-strep. Cells were grown to 80% confluency in tissue culture flasks prior to plating. Cells were trysinized and plated onto a 12-well plate (BD) at a low density of 2000 cells per well in 1 ml of RMPI. Each ovarian cell line was seeded into two wells of a 12 well tissue culture plate. For each ovarian cell line, one of the two wells was treated with 2 μM AZD0530 and the other well treated with 0.02% DMSO control for 48 hours. Cells were imaged using a time-lapse video microscope incubator system (Leica) controlled by Metamorph software (Molecular Devices). Time-lapse images were taken at 5 min intervals for 24 hours and saved as tiff format. Each individual tiff images were compiled into stack images using the stack creation function in Metamorph. Each cell was tracked using the particle tracking function in Metamorph software. The tracking function detected and recorded the x and y coordinates of the cell being tracked for each image in the stack. The x and y coordinates were used to plot the track of the individual cell in excel. The total distance travelled, displacement and average velocity of the tracked cell were then tabulated.

Where [4] appears, read: panel of ovarian carcinoma cell lines.

The structures appear in SMILES notation.

For the compound `CN1CCN(CCOc2cc(OC3CCOCC3)c3c(Nc4c(Cl)ccc5c4OCO5)ncnc3c2)CC1` [AZD0530], the E-cadherin expression result in experiment [1] is recorded as “augment E-cadherin expression”. Also, the “Cell morphology (phase contrast)” value in experiment [2] is reported as “compaction of cell morphology”. For the same compound, the “Mobility (individual cell tracks)” value in experiment [3] (ovarian carcinoma cell lines) is listed as “suppression of the mobility”. Besides, in experiment [3] (setting [4]), the “Average displacement cells migrate” value is given as “decrease” and the “Average velocity of cell migrations” value is given as “decrease”.
